For data set [1], the target named is T1, Cytochrome P450 3A4 (Homo sapiens, UniProt P08684). Kind of data set: Mechanism based inactivation of CYP3A4 in human liver microsomes assessed as apparent partition ratio by measuring ratio of number of inactivator molecules that get metabolized to number of enzyme molecules inactivated using testosterone as substrate. The class given is ADME.
Data set [2] deals with T1, Cytochrome P450 3A4. Kind of data set: Mechanism based inactivation of CYP3A4 in human liver microsomes assessed as apparent partition ratio by measuring ratio of number of inactivator molecules that get metabolized to number of enzyme molecules inactivated using midazolam as substrate. Format: ADME. A general note: Microsomes from liver hold many membrane-bound enzymes, among them those of drug oxidation.

Data set [3] has as its target T2, CYP3A4 (Homo sapiens, UniProt P08684). Kind of data set: Inhibition of CYP3A4 in human liver microsomes assessed as residual activity using midazolam as substrate relative to control. The class given is ADME. Further details: concentration or dose not given beside the values; call rule not given here. The following applies: probe midazolam.
The target of data set [4] is T2, CYP3A4. The data set is described as follows: Inhibition of CYP3A4 in human liver microsomes assessed as residual activity using testosterone as substrate relative to control. The class given is ADME. Further details: concentration or dose not given beside the values. The settings on record: probe testosterone.
The target of data set [5] is Hematopoietic prostaglandin D synthase (Homo sapiens, UniProt O60760). The data set is described as follows: Inhibition of HPGDS (unknown origin).
Sequence of Hematopoietic prostaglandin D synthase (O60760 whole entry): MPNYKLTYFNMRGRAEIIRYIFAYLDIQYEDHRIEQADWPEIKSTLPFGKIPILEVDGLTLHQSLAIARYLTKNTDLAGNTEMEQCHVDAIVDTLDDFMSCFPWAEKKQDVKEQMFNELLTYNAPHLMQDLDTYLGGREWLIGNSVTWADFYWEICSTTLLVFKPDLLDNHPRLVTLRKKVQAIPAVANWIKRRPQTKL
Data set [6] has as its target T1, Cytochrome P450 3A4. Kind of data set: Mechanism based inactivation of recombinant human CYP3A4 assessed as apparent partition ratio by measuring ratio of number of inactivator molecules that get metabolized to number of enzyme molecules inactivated using midazolam as substrate. Format: ADME.
The target of data set [7] is T1, Cytochrome P450 3A4. Kind of data set: Mechanism based inactivation of recombinant human CYP3A4 assessed as apparent partition ratio by measuring ratio of number of inactivator molecules that get metabolized to number of enzyme molecules inactivated using testosterone as substrate. The class given is ADME.
In data set [8] the target is T2, CYP3A4. The data set is described as follows: (§1) Inhibition of recombinant human CYP3A4 assessed as residual activity using midazolam as substrate relative to control. Format: ADME. The settings on record: recombinant human CYP3A4, probe midazolam.
Data set [9] concerns the target T2, CYP3A4. The data set is described as follows: (§2) Inhibition of recombinant human CYP3A4 assessed as residual activity using testosterone as substrate relative to control. The following applies: recombinant human CYP3A4, probe testosterone. The class given is ADME.
For data set [10], the target named is T1, Cytochrome P450 3A4. Described as §1. The following applies: recombinant enzyme. The class given is ADME.
For data set [11], the target named is T1, Cytochrome P450 3A4. The data set is described as §2. The settings on record: recombinant enzyme. The class given is ADME.

Our source for the Ratio, activity and IC50 values is ChEMBL document CHEMBL4229534, “Amelioration of mechanism-based inactivation of CYP3A4 by a H-PGDS inhibitor” (Bioorg Med Chem Lett, 2018).

Each structure is given as a SMILES string.

T1 sequence (P08684 whole entry): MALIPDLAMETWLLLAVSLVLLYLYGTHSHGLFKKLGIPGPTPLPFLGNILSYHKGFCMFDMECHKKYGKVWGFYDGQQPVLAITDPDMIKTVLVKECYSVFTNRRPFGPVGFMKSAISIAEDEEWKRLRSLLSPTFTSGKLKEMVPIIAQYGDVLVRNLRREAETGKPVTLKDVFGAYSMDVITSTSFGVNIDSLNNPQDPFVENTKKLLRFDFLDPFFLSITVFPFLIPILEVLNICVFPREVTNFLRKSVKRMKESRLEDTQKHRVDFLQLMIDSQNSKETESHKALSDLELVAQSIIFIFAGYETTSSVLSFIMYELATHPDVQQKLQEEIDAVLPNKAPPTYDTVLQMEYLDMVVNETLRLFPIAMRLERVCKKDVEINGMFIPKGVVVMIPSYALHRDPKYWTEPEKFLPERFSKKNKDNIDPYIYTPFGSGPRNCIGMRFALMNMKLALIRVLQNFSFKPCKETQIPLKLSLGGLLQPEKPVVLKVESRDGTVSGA
T2 sequence (P08684 whole entry): as above

Consider `Cc1nc(-c2ccccn2)ncc1C(=O)Nn1cc(C)c2cc(F)ccc21`, for which the values for the Ratio on Cytochrome P450 3A4 [1] and on Cytochrome P450 3A4 [2] were 160 to 167 and 170 to 173, respectively. Further, the figures for the activity at CYP3A4 [3] and at CYP3A4 [4] were 30% and 20%, respectively.

Usually IC50 stands for the midpoint of a concentration-inhibition curve. Regarding `Cc1nc(-c2ccccn2)ncc1C(=O)Nn1ccc2c(C(F)(F)F)cccc21`, the half-inhibitory concentration (IC50) in data set [5] came out at 10 nM. Moreover, the activity was found to be 100% on CYP3A4 [3], 91% at CYP3A4 [4], 57% on CYP3A4 [8] and 59% on CYP3A4 [9]. The figures for the Ratio at Cytochrome P450 3A4 [6] and on Cytochrome P450 3A4 [7] were 1119 and 842, respectively.

`Cc1nc(-c2ccccn2)ncc1C(=O)Nn1cc(C)c2nc(F)ccc21` registered a 50% inhibitory concentration (IC50) in data set [5] of 6 nM. The activity on CYP3A4 [3] was 79%; at CYP3A4 [4] it was 91%.

In turn, `CNS(=O)(=O)c1cccc(CNC(=O)c2cnc(-c3cccc(F)c3)nc2C)c1` showed a half-maximal inhibitory concentration (IC50) in data set [5] of 9.5 nM.

In [5], `CC(C)(CO)NS(=O)(=O)c1cccc(CNC(=O)c2cnc(-c3cccc(F)c3)nc2)c1` gave an IC50 of 23 nM.

Turning to `COc1ccc2c(n1)c(C)cn2NC(=O)c1cnc(-c2ccccn2)nc1C`, the Ratio is reported as 338 at Cytochrome P450 3A4 [2], 326 at Cytochrome P450 3A4 [6] and 460 at Cytochrome P450 3A4 [7]. Moreover, half-maximal inhibition in [5] (IC50) required 3 nM. For the same molecule, the activity is 57% at CYP3A4 [3], over 70% at CYP3A4 [4], 19% on CYP3A4 [8] and 22% on CYP3A4 [9].

`Cc1nc(-c2ncccn2)ncc1C(=O)Nn1ccc2c(C(F)(F)F)cccc21` gave a concentration for half-maximal inhibition (IC50) in data set [5] of 8 nM. Besides, the activity is 95% on CYP3A4 [3], 90% on CYP3A4 [4], “Not Active” at Cytochrome P450 3A4 [10] and “Not Active” at Cytochrome P450 3A4 [11].
